Measured values as given in PMC11801377, “A uniquely efficacious type of CFTR corrector with complementary mode of action” (Science Advances, 2024).

Tests used:
R560T CFTR = biological target: T1, R560T CFTR (Homo sapiens, UniProt P13569, R560T); experiment: CFTR correction (immunoblotting), HEK-TREx, R560T; assay type: cell-based; details: 48 hours, IDOR-3 2 μM, IDOR-4 0.4 μM, TEZ 2 μM + ELX 0.4 μM
T1 construct: expressed in transfected cells; host or cells: T-REx HEK293
From the text: (§1) The human CFTR expressing HEK cell pools with the mutations described below were generated by integrase-mediated homologous recombination of the CFTR sequence into the T-REx HEK293 background (Thermo Fisher Scientific). This expression system allows the tetracycline-inducible expression of genes of interest from one defined insertion site. Parental T-REx-HEK293 cells were cultivated in growth medium: Dulbecco’s modified Eagle’s medium + GlutaMAX-I (#31966, Life Technologies), 10% dialyzed FBS (Gibco, #26400), penicillin (100 U/ml), streptomycin (100 μg/ml), hygromycin B (0.1 mg/ml; Life Technologies), blasticidin (5 μg/ml; Invitrogen, #R210-01), and 0.1 mM nonessential amino acid solution (Invitrogen, #11140-035). Recombinant T-REx-HEK-CFTR cells were generated by lipofectamine transfection (Life Technologies) of plasmids containing mutated versions of CFTR (RefSeq NM_000492) and then cultivated in selection medium [growth medium containing Geneticin (1 mg/ml) (Invitrogen, #10131-027) instead of hygromycin]. The plasmid constructs were synthetized by GENEART (Thermo Fisher Scientific) and designed with the WT CFTR intron 5 to 6 (880 nucleotides) to prevent leaky expression issues during the cloning process in bacteria. […]

L206W CFTR = biological target: T2, L206W CFTR (Homo sapiens, UniProt P13569, L206W); experiment: CFTR correction (immunoblotting), HEK-TREx, L206W; assay type: cell-based; details: 48 hours, IDOR-3 2 μM, IDOR-4 0.4 μM, TEZ 2 μM + ELX 0.4 μM
T2 construct: expressed in transfected cells; host or cells: T-REx HEK293
T2 sequence (P13569 whole entry L206W): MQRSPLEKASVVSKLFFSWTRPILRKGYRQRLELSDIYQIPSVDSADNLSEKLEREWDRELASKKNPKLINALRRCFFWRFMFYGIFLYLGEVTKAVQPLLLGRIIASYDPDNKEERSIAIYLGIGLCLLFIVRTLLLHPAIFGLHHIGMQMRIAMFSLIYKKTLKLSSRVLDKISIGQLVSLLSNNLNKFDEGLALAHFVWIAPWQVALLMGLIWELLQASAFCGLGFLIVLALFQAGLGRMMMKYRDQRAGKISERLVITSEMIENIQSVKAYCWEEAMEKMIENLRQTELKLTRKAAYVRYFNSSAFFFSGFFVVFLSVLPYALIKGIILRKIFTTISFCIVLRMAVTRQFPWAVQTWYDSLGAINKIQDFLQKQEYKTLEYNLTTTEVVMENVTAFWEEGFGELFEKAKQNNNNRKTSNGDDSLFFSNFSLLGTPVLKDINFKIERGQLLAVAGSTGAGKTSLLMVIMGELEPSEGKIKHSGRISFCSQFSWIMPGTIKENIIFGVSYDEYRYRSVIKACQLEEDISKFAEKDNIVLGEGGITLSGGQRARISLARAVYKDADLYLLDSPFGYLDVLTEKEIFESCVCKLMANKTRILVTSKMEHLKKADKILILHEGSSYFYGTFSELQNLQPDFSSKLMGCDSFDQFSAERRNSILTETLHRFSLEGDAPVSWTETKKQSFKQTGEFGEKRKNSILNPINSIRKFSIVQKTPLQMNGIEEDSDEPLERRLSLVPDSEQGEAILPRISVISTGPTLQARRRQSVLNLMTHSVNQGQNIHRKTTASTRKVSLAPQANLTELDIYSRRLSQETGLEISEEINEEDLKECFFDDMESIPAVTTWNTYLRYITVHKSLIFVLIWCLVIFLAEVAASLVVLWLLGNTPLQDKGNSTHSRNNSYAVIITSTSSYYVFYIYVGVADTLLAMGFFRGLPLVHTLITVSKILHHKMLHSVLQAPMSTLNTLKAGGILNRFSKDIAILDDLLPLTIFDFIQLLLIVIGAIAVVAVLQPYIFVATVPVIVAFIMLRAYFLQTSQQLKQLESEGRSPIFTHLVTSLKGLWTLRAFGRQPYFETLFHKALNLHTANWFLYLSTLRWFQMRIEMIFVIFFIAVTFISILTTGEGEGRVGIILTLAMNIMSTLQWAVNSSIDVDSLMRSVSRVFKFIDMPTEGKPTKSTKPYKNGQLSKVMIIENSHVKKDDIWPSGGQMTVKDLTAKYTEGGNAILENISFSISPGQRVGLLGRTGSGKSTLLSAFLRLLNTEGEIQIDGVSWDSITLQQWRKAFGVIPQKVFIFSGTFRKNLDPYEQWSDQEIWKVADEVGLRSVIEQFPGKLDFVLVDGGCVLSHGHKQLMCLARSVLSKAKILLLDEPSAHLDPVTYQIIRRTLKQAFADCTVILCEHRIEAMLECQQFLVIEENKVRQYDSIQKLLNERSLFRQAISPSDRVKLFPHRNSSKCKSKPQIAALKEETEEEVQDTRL
From the text: as §1

I507del CFTR = biological target: T3, I507del CFTR (Homo sapiens, UniProt P13569, DEL507-507); experiment: CFTR correction (immunoblotting), HEK-TREx, I507del; assay type: cell-based; details: 48 hours, IDOR-3 2 μM, IDOR-4 0.4 μM, TEZ 2 μM + ELX 0.4 μM
T3 construct: expressed in transfected cells; host or cells: T-REx HEK293
T3 sequence (P13569 with tags, fused parts or gaps DEL507-507): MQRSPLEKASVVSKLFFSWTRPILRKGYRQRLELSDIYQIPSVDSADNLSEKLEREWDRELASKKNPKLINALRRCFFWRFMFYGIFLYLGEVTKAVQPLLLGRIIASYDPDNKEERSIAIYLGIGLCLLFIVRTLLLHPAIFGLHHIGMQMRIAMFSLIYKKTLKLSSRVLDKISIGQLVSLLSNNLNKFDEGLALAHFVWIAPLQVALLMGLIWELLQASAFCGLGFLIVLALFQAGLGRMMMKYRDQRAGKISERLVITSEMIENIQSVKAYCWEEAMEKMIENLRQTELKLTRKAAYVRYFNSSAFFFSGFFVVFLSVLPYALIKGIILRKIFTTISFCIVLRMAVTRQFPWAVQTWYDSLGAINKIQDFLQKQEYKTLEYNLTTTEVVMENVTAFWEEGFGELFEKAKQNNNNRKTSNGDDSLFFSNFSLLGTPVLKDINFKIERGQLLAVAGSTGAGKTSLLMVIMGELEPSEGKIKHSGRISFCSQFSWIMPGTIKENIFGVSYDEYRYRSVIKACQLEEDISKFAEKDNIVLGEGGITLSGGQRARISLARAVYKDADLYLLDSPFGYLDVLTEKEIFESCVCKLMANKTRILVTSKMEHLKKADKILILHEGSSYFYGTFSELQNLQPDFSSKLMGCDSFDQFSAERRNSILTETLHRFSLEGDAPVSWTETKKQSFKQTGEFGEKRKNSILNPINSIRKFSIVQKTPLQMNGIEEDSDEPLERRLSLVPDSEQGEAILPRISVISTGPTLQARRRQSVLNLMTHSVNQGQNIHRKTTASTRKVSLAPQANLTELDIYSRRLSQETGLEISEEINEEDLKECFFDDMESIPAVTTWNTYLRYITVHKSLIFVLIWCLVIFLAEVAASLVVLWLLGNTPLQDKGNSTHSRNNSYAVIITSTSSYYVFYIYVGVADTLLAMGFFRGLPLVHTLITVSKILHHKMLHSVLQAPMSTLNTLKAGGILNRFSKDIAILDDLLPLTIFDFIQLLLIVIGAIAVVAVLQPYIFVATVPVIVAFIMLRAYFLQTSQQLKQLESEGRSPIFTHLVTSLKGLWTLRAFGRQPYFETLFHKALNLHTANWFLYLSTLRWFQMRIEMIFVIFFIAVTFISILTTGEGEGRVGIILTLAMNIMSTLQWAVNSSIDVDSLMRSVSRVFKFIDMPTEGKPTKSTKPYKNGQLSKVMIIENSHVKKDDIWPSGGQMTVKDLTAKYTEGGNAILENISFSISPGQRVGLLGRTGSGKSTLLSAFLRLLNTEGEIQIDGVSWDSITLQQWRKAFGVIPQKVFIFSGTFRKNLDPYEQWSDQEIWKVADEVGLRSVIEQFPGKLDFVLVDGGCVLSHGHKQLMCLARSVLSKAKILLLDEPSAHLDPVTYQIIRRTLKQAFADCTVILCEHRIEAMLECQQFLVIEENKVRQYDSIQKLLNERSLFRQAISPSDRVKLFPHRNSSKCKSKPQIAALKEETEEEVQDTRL
From the text: as §1

V520F CFTR = biological target: T4, V520F CFTR (Homo sapiens, UniProt P13569, V520F); experiment: CFTR correction (immunoblotting), HEK-TREx, V520F; assay type: cell-based; details: 48 hours, IDOR-3 2 μM, IDOR-4 0.4 μM, TEZ 2 μM + ELX 0.4 μM
T4 construct: expressed in transfected cells; host or cells: T-REx HEK293
T4 sequence (P13569 whole entry V520F): as the sequence (P13569 whole entry L206W) above, with W206L, V520F counted along it
From the text: as §1

R1066C CFTR = biological target: T5, R1066C CFTR (Homo sapiens, UniProt P13569, R1066C); experiment: CFTR correction (immunoblotting), HEK-TREx, R1066C; assay type: cell-based; details: 48 hours, IDOR-3 2 μM, IDOR-4 0.4 μM, TEZ 2 μM + ELX 0.4 μM
T5 construct: expressed in transfected cells; host or cells: T-REx HEK293
T5 sequence (P13569 whole entry R1066C): as the sequence (P13569 whole entry L206W) above, with W206L, R1066C counted along it
From the text: as §1

G85E CFTR = biological target: T6, G85E CFTR (Homo sapiens, UniProt P13569, G85E); experiment: CFTR correction (immunoblotting), HEK-TREx, G85E; assay type: cell-based; details: 48 hours, IDOR-3 2 μM, IDOR-4 0.4 μM, TEZ 2 μM + ELX 0.4 μM
T6 construct: expressed in transfected cells; host or cells: T-REx HEK293
T6 sequence (P13569 whole entry G85E): as the sequence (P13569 whole entry L206W) above, with G85E, W206L counted along it
From the text: as §1

[1] = biological target: T7, F508del-CFTR-G550E.R553M.R555K.R1070W (3TS + RW) (Homo sapiens, UniProt P13569, DEL508-508/G550E/R1070W/R553M/R555K); experiment: CFTR immunoblotting in HEK-TREx cells expressing F508del-CFTR 3TS + RW; assay type: cell-based; details: 48 hours
T7 construct: expressed in transfected cells; host or cells: T-REx HEK293
T7 sequence (P13569 with tags, fused parts or gaps DEL508-508/G550E/R553M/R555K/R1070W): as the sequence (P13569 with tags, fused parts or gaps DEL507-507) above, with F507I, G549E, R552M, R554K, R1069W counted along it
From the text: as §1

WT-CFTR = biological target: T8, WT-CFTR (Homo sapiens, UniProt P13569); experiment: YFP quenching assay in CFBE-WT-CFTR-YFP cells; assay type: cell-based
T8 construct: host or cells: CFBE41o-
T8 sequence (P13569 whole entry): as the sequence (P13569 whole entry L206W) above, with W206L counted along it

F508del.L15W-CFTR = experiment: Site-directed mutagenesis immunoblotting, HEK-TREx, F508del.L15W-CFTR; assay type: cell-based, human; details: 40 h, 2 μM
From the text: as §1

N1303K CFTR = biological target: T9, N1303K CFTR (Homo sapiens, UniProt P13569, N1303K); experiment: CFTR correction (immunoblotting), HEK-TREx, N1303K; assay type: cell-based; details: 48 hours, IDOR-3 2 μM, IDOR-4 0.4 μM, TEZ 2 μM + ELX 0.4 μM
T9 construct: expressed in transfected cells; host or cells: T-REx HEK293
T9 sequence (P13569 whole entry N1303K): as the sequence (P13569 whole entry L206W) above, with W206L, N1303K counted along it
From the text: as §1

T1 sequence (P13569 whole entry R560T): as the sequence (P13569 whole entry L206W) above, with W206L, R560T counted along it

correction of R560T (R560T CFTR): highly effective
correction of L206W (L206W CFTR): highly effective
correction of I507del (I507del CFTR): highly effective
correction of V520F (V520F CFTR): highly effective
correction of R1066C (R1066C CFTR): highly effective
correction of G85E (G85E CFTR): highly effective
effect of introduction of the RW mutation on C-band expression [1]: no additional effect
increase in WT-CFTR function (WT-CFTR): ~ 2 fold
correction of N1303K (N1303K CFTR): only minor activity
SMILES: COc1cc(CCNC(=O)C2CC(=O)N(C)C(CC(C)C)C(=O)N3CCCCC3C(=O)NC(Cc3ccccc3)COc3ccc4ncc(F)cc4c3C(=O)N2)on1 (stereo not shown) [IDOR-3]
correction by macrocycles versus [LUM + BAM] (F508del.L15W-CFTR): little difference
